In patent publication US20130252930A1 (BIOMARIN PHARMACEUTICAL INC., priority 2010, published 2013):
Like-named read-outs stand apart in the source and are kept apart here.

How the values were obtained:
[1] = tested on: rat Cyp11B enzyme (rat adrenal mitochondria); test: CYP11B enzymatic assay (% inhibition at 100 nM) (Biological Example 9); format: biochemical; details: for CYP11B enzymatic assay % inhibition at 100 nM (Biological Example No. 9): compound at 100 nM; for Biological Example No. 9: CYP11B percent inhibition at 100 nM: 100 nM compound, cortisol by ELISA
Procedure, shortened: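 Sprague Dawley rat adrenal mitochondria were incubated with compound at 100 nM, 0.5 mM NADPH and 0.1 μM 11-deoxycortisol (pH 7.4 Tris buffer) for 60 min at 37 °C. Cortisol was measured by ELISA and corrected by subtracting the no-NADPH background. % inhibition is relative to the no-compound reaction.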

[2] = target: T1, CYP17 (human testicular microsome) (Homo sapiens, UniProt P05093); test: CYP17 enzymatic assay (IC50) (Biological Example 4); format: biochemical
T1 construct: using microsomal fraction from human testis (Celsis Cat #S00110) as the enzyme source; tissue Celsis S00110; host or cells: human testis microsomal fraction
T1 sequence (P05093 1-508): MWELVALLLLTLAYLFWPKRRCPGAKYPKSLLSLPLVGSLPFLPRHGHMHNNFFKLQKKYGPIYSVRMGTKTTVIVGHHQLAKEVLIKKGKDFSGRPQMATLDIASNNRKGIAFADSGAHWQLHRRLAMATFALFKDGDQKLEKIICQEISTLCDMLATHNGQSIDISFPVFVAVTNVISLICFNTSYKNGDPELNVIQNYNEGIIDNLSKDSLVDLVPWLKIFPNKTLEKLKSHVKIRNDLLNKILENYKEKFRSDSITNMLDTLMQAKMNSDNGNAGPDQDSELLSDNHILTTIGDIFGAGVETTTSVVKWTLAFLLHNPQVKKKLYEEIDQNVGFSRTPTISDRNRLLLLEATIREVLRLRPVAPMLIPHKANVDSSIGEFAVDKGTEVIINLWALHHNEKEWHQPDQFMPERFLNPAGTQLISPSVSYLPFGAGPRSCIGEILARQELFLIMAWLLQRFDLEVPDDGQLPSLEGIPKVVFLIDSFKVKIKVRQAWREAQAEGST

[3] = Human liver microsome stability assay (Biological Example 8b); details: liver microsomes, pH 7.4
Method: The reaction was started with addition of excess NADPH (5 mg/mL, 15 μL in 0.1 M potassium phosphate buffer, 1.0 mM EDTA, pH 7.4), the total volume is 45 μL (compound final concentration was 1 μM). […] 50 μL of the supernatant was transferred from each well into a 96-well sample plate containing 50 μL of ultra-pure water (Millipore) for LC-MS/MS analysis.

[4] = target: T1, CYP17 (human testicular microsome); test: CYP17 enzymatic assay (% inhibition at 1 nM) (Biological Example 12); format: biochemical; details: compound at 1 nM, read-out: CYP17 enzymatic assay % inhibition at 1 nM (Biological Example No. 12)
Method: The assays were performed in 96-well plates. Typical assays were carried out in total 100 μL volume that included test compounds at 1 nM concentration, 1× reaction buffer, 0.5 mM NADPH, 1 μM 17α-hydroxypregnenolone, and 2.5 μL of human testicular microsome (Celsis. Cat #S00110). Reaction without test compound served as a positive control. Reactions were allowed to incubate at 37° C. for 90 min with gentle shaking. The reaction was stopped by directly applying the enzymatic reaction mixture to ELISA plate for evaluation of DHEA concentration according to manufacturer's protocol (IBL America). A standard curve (OD450 vs. DHEA concentration) was generated using purified DHEA. […] Percent inhibition (inhibition %) of the compound was calculated using normalized DHEA concentration based on following formula: 100−([DHEA] of compound/[DHEA] of positive control*100).

[5] = target: T2, Cyp21 enzyme (Human HEK 293-Cyp21 stable transfected cells) (Homo sapiens, UniProt P08686); test: CYP21-HEK293 enzymatic assay (% inhibition at 100 nM) (Biological Example 10); format: cell-based; details: HEK 293-Cyp21 cells
T2 construct: expressed in transfected cells
T2 sequence (P08686 1-495): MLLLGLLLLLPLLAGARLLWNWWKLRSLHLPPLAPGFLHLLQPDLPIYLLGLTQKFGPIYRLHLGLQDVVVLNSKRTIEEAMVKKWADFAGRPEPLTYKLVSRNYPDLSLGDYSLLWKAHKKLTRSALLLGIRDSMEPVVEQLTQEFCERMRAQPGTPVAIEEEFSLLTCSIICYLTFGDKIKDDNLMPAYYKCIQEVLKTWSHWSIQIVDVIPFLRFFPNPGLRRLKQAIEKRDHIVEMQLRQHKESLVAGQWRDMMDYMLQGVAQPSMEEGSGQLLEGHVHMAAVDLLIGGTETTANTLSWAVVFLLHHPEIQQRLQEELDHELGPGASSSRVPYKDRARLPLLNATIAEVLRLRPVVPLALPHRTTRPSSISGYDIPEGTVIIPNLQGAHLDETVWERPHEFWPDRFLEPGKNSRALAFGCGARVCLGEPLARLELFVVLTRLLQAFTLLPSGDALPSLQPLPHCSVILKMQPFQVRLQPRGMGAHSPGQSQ
Method: Proceeding using methods similar to those described in Biological Example 11, the percent inhibition at 100 nM was measured.
This assay was used to determine compound activity against Cyp21 enzyme. Human HEK 293-Cyp21 stable transfected cells (maintained in complete growth media DMEM+10% FBS, supplemented with 125 ug/mL Hygromycin) were seeded in a 96-well plate at 20,000 cells/well/100 uL in DMEM plus 10% FBS and allowed to attach overnight. The next day, 20 μL medium was carefully removed and 10 μL of 10× pre-made compounds in DMEM+10% FBS+10% methanol was transferred to the wells to final concentrations of 1000, 100, 10, 1, or 0.1 nM. Mock treatment was 1% methanol in growth media and the cells were left at 37° C., 5% CO2 for 5 hr. After the incubation, 10 μL of substrate progesterone (Sigma) was added to the wells to make a final concentration of 10 μM. The cells were incubated the cells at 37° C. for 20 hr. At the end of incubation, 90 μL of conditioned media was removed to measure DOC level by ELISA.
Preparation of the DOC ELISA: 100 μL of coating buffer (0.025M PBS pH 7.4) containing 200 ng/mL DOC-3-carboxymethyloxime-BSA (Steraloids. inc, Cat#3469-000) was added to each well of a 96-well plate and incubated overnight at 4° C. The next day, the plates were washed twice with 250 μl of wash solution (0.015M PBS pH 7.4 containing 0.05% Tween 20). After being washed, the wells were blocked with 250 μL blocking buffer (3% BSA in 0.025M PBS, pH 7.4) at 37° C. for 2 h. The plates were washed again 3 times as before, and then 90 μL of sample /standards (prepared in complete growth media) was added into the appropriate wells followed by 10 μL of antibody solution (1:450 rabbit anti-DOC in 0.6% BSA/PBS). The plates were incubated at room temperature for 2 h on a shaker. The contents of the wells were removed and the plate was washed 4 times. After the final wash, 100 μL of secondary antibody (1:12000 HRP-goat-anti-rabbit IgG conjugate 0.6% BSA/PBS) was added into each well. The plate was incubated at 30° C. for 45 min. The plate was washed again 4 times and 100 μL of TMB substrate solution was added to each well. The plate was incubated at room temperature for 10 min. 100 μL of stop solution was added to each well and the optical density was read at 450 nm.
The mean absorbance value for each sample was used to determine the corresponding concentration from the standard curve. Data was analyzed with “log(antagonist) vs response variable slope” under “non-linear regression analysis” using Prism5 software.

[6] = target: T1, CYP17 (human testicular microsome); test: CYP17 enzymatic assay (% inhibition at 10 nM), version 1 (Biological Example 5); format: biochemical
[7] = human testicular microsome, read-out: CYP17 enzymatic assay IC50 (Biological Example No. 4)
[8] = compound at 100 nM, read-out: CYP21-HEK293 enzymatic assay % inhibition at 100 nM (Biological Example No. 10)
[9] = 10 nM compound, DHEA by ELISA, read-out: Biological Example No. 5: CYP17 percent inhibition at 10 nM (version 1)
[10] = 100 nM compound, read-out: Biological Example No. 10: CYP21-HEK293 percent inhibition at 100 nM
[11] = human testicular microsome, DHEA by ELISA, read-out: Biological Example No. 4: CYP17 enzymatic assay IC50

Structure (SMILES) | CYP11B enzymatic assay % inhibition at 100 nM (Biological Example No. 9) [1] | IC50 [2, 7] | half-life at 1 μM [3] | inhibition at 0.001 µM [4] | inhibition at 0.1 µM [5, 8] | Biological Example No. 9: CYP11B percent inhibition at 100 nM [1] | inhibition at 0.01 µM [6, 9] | inhibition at 0.1 µM [5, 10] | IC50 [2, 11] | inhibition at 0.01 µM ([6]; compound at 10 nM, read-out: CYP17 enzymatic assay % inhibition at 10 nM (Biological Example No. 5)) | IC50 [2]
C[C@]12CCC(NC(=O)C3CC3)CC1=CCC1C2CC[C@]2(C)C(n3ccnc3)=CCC12 (stereo partly drawn) [Compound 238, N-((10R,13S)-17-(1H-imidazol-1-yl)-10,13-dimethyl-2,3,4,7,8,9,10,11,12,13,14,15-dodecahydro-1H-cyclopenta[a]phenanthren-3-yl)cyclopropanecarboxamide] | U (U means the compound had a percent inhibition of greater than or equal to 32%) | < 0.011 µM | 1 to 50 min | > 50% | < 30% |  |  |  |  |  | 
CN1CC=C2CC[C@@H]3[C@H](CC[C@]4(C)C(c5cccnc5)=CC[C@@H]34)[C@@]2(C)CC1 [Compound 147, (5aR,7aS)-2,5a,7a-trimethyl-8-(pyridin-3-yl)-2,3,4,5,5a,5b,6,7,7a,10,10a,10b,11,12-tetradecahydrocyclopenta[5,6]naphtho[2,1-c]azepine] |  |  |  |  |  | na (“na” means the compound was not active under the conditions tested) | 1 to 50% | < 30% |  |  | 
C[C@]12CC[C@H]3[C@@H](CCN4C(=O)CCCC[C@]34C)[C@@H]1CC=C2c1cccnc1 [Compound 38, (11aR,13aS)-11a,13a-dimethyl-1-(pyridin-3-yl)-3b,4,5,8,9,10,11,11a,11b,12,13,13a-dodecahydro-3H-azepino[2,1-a]cyclopenta[f]isoquinolin-7(3aH)-one] |  |  |  |  |  | na (“na” means the compound was not active under the conditions tested) | 50 to 80% | < 30% | < 0.011 µM |  | 
C[C@]12CC[C@H]3[C@@H](CCN4CCCCC[C@]34C)[C@@H]1CC=C2c1cccnc1 [Compound 44, (11aR,13aS)-11a,13a-dimethyl-1-(pyridin-3-yl)-3a,3b,4,5,7,8,9,10,11,11a,11b,12,13,13a-tetradecahydro-3H-azepino[2,1-a]cyclopenta[f]isoquinoline] |  |  |  |  |  | na (“na” means the compound was not active under the conditions tested) | 1 to 50% | < 30% |  |  | 
CN1CC=C2CC[C@@H]3[C@H](CC[C@]4(C)C(n5ccnc5)=CC[C@@H]34)[C@@]2(C)CC1 [Compound 151] |  |  |  |  |  | T (T means the compound had a percent inhibition of less than 32% when tested at 100 nM) | 1 to 50% | < 30% |  |  | 
C[C@]12CCCCC1C(=O)C[C@@H]1[C@@H]2CC[C@]2(C)C(n3ccnc3)=CC[C@@H]12 (stereo partly drawn) [Compound 88, (10R,13S)-17-(1H-imidazol-1-yl)-10,13-dimethyl-2,3,4,5,7,8,9,11,12,13,14,15-dodecahydro-1H-cyclopenta[a]phenanthren-6(10H)-one] |  |  |  |  |  | T (T means the compound had a percent inhibition of less than 32% when tested at 100 nM) | > 80% | < 30% | < 0.011 µM |  | 
C[C@]12CC[C@H]3[C@@H](CC[C@H]4CC(=O)CC[C@@]43C)C1=CC=C2c1cccnc1 [Compound 164, (5S,8R,9S,10S,13S)-10,13-dimethyl-17-(pyridin-3-yl)-4,5,6,7,8,9,10,11,12,13-decahydro-1H-cyclopenta[a]phenanthren-3(2H)-one] |  |  | 1 to 50 min |  |  | U (U means the compound had a percent inhibition of greater than or equal to 32%) | > 80% | ≥ 30% | < 0.011 µM |  | 
C[C@]12CC[C@H]3[C@@H](CC[C@H]4CC(=O)NCC[C@@]43C)C1=CC=C2n1ccnc1 [Compound 447, (5aS,5bS,7aS,10bR,12aS)-8-(1H-imidazol-1-yl)-5a,7a-dimethyl-3,4,5,5a,5b,6,7,7a,10b,11,12,12a-dodecahydrocyclopenta[5,6]naphtho[1,2-d]azepin-2(1H)-one] | na (“na” means the compound was not active under the conditions tested) | < 0.011 µM | 1 to 50 min |  | ≥ 30% |  |  |  |  | > 80% | 
C[C@]12CC[C@H]3[C@@H](CC[C@H]4CC(=O)CC[C@@]43C)C1=CC=C2n1ccnc1 [Compound 171] |  |  | 1 to 50 min |  |  | T (T means the compound had a percent inhibition of less than 32% when tested at 100 nM) | > 80% | < 30% |  |  | < 0.011 µM
CN1CC[C@@]2(C)C(=CC1=O)CC[C@H]1C3=CC=C(c4cccnc4)[C@@]3(C)CC[C@@H]12 [Compound 158] |  |  | 1 to 50 min |  |  | T (T means the compound had a percent inhibition of less than 32% when tested at 100 nM) | > 80% | ≥ 30% | < 0.011 µM |  | 
